{"source": "ChEMBL document CHEMBL4428037", "about": "(J Med Chem, 2016)", "key": {"NCI-H460": {"test_system": "NCI-H460", "assay": "Inhibition of colony formation in human NCI-H460 cells at 10 nM incubated for 9 days by crystal violet staining based assay", "type": "functional", "conditions": "NCI-H460, 216 h"}, "A549 [1]": {"test_system": "A549", "assay": "Growth inhibition of human A549 cells incubated for 48 hrs by MTT assay", "type": "functional, cell-based", "conditions": "A549, 48 h"}, "A549 [2]": {"test_system": "A549", "assay": "Induction of apoptosis in human A549 cells assessed as induction of cell shrinkage at 40 nM incubated for 24 hrs microscopy", "type": "functional, cell-based"}, "A549 [3]": {"test_system": "A549", "assay": "Induction of apoptosis in human A549 cells assessed as live cells level at 10 nM incubated for 24 hrs by Annexin V-FITC/PI staining based FACS flow cytometry (reference value: 96.83%)", "type": "functional"}, "A549 [4]": {"test_system": "A549", "assay": "Inhibition of colony formation in human A549 cells at 10 nM incubated for 9 days by crystal violet staining based assay", "type": "functional", "conditions": "A549, 216 h"}, "[5]": {"test_system": "Non-small cell lung cancer cell line", "assay": "Antitumor activity against human NSCLC xenografted in Balb/c-nu mouse assessed as induction of delay in tumor volume increase at 50 mg/kg, ip dosed every day for 21 consecutive days and measured every 3 days", "type": "functional, organism-based"}, "A549 [6]": {"test_system": "A549", "assay": "Induction of apoptosis in human A549 cells assessed as necrotic cells level at 10 nM incubated for 24 hrs by Annexin V-FITC/PI staining based FACS flow cytometry (reference value: 0.37%)", "type": "functional"}, "A549 [7]": {"test_system": "A549", "assay": "Induction of apoptosis in human A549 cells assessed as live cells level at 20 nM incubated for 24 hrs by Annexin V-FITC/PI staining based FACS flow cytometry (reference value: 96.83%)", "type": "functional"}, "[8]": {"test_system": "Non-small cell lung cancer cell line", "assay": "Antitumor activity against human NSCLC xenografted in Balb/c-nu mouse assessed as inhibition of tumor growth at 12.5 mg/kg, ip dosed every day for 21 consecutive days and measured every 3 days", "type": "functional", "conditions": "72 h, read-out: TGI"}, "[9]": {"assay": "Toxicity in human NSCLC xenografted Balb/c-nu mouse assessed as effect on body weight at 50 mg/kg, ip dosed every day for 21 consecutive days", "type": "organism-based", "conditions": "in vivo"}, "HepG2": {"test_system": "HepG2", "assay": "Growth inhibition of human HepG2 cells incubated for 72 hrs by MTT assay", "type": "functional, cell-based", "conditions": "HepG2, 72 h"}, "A549 [10]": {"test_system": "A549", "assay": "Induction of apoptosis in human A549 cells assessed as necrotic cells level at 20 nM incubated for 24 hrs by Annexin V-FITC/PI staining based FACS flow cytometry (reference value: 0.37%)", "type": "functional"}, "HUVEC": {"test_system": "HUVEC", "assay": "Inhibition of capillary tube formation in HUVEC assessed as reduction in tube-like structures formation at 10 nM incubated for 8 hrs by fluorescence microscopy based 3D-matrigel assay", "type": "functional", "conditions": "Homo sapiens"}}, "note": "The source made the active and inactive calls. The calls are words filed in the database; no cut-off is given here."}
{"smiles": "CCOc1cccc(Nc2nn(C)c3c2Cc2cc(OCC)c(OCC(N)=O)cc2-3)c1", "values": [{"measurement": "inhibition at 0.01 µM", "setting": "NCI-H460", "value": 97.3, "unit": "%"}, {"measurement": "IC50", "setting": "A549 [1]", "value": 41.5, "unit": "nM"}, {"measurement": "Activity", "setting": "A549 [2]", "value": "Active"}, {"measurement": "Activity", "setting": "A549 [3]", "value": 95.66, "unit": "%"}, {"measurement": "inhibition at 0.01 µM", "setting": "A549 [4]", "value": 91, "unit": "%"}, {"measurement": "Activity", "setting": "[5]", "value": "Active"}, {"measurement": "Activity", "setting": "A549 [6]", "value": 0.62, "unit": "%"}, {"measurement": "Activity", "setting": "A549 [7]", "value": 90.81, "unit": "%"}, {"measurement": "inhibition in vivo at 12.5 mg/kg", "setting": "[8]", "value": 33.8, "unit": "%"}, {"measurement": "Activity", "setting": "[9]", "value": "Non-Toxic"}, {"measurement": "IC50", "setting": "HepG2", "value": 26, "unit": "nM"}, {"measurement": "Activity", "setting": "A549 [10]", "value": 0.84, "unit": "%"}, {"measurement": "inhibition at 0.01 µM", "setting": "HUVEC", "value": 39, "unit": "%"}]}
